Consider one molecule from patent US4713386A, “Tetrahydroazeto [2,1-a]isoquinolines and methods for treating depression” (McNeilab, Inc., priority 1986, dated 1987).

By ED50 is commonly meant the dose that gives a 50% effect, or the effect in half of the subjects.

The test deals with Mouse. Nature of the test: Mouse Tetrabenazine Antagonism Assay (TBZ 32 mg/kg i.p.; exploratory activity and reversal of ptosis). To be noted: mice, (1:1) fumarate salt. Format: in vivo. The protocol:
In this test, mice are injected with a test compound 30 min prior to the injection of 32 mg/kg i.p. of TBZ, a drug which decreases normal exploratory activity and induces ptosis. After 30 min. the mice are tested for two parameters: the presence of normal exploratory activity (EA) and reversal of ptosis (Pt). A control group of mice is given only 32 mg/kg i.p. of TBZ. The biological activity of the novel compounds of this invention may be understood by the representative, nonlimiting example, presented in Table I.

[1] abbreviates: @ 3 mg/kg i.p., 30 min before 32 mg/kg i.p. TBZ.

With `O=C(O)/C=C/C(=O)O.c1ccc([C@@H]2CN3CC[C@@H]3c3ccccc32)cc1` (relative stereo) [Example 1d, trans-1,4,5,9b-Tetrahydro-5-phenyl-2H-azeto[2,1-a]isoquinoline (E)-2-butenedioate], the ED50 (Mus musculus, ip, i.p., TBZ 32 mg/kg i.p.) amounted to 1.25 mg/kg. Moreover, under setting [1], the “% inhibition EA (exploratory activity)” value is 50% and the “% inhibition Pt (reversal of ptosis)” value worked out at 88%.
